Source: the supplement of paper PMC10307832

What was measured:
Test in all cases: relative viability (nuclei count vs DMSO), 5 days (fraction); higher = more cells survive
CAP-232 + Trametinib = compound: C[C@H]([C@@H](C(=O)N)NC(=O)[C@@H]1CSSC[C@@H](C(=O)N[C@H](C(=O)N[C@@H](C(=O)N[C@H](C(=O)N1)CCCCN)CC2=CNC3=CC=CC=C32)CC4=CC=C(C=C4)O)NC(=O)[C@@H](CC5=CC=CC=C5)N)O [CAP-232] + CC(=O)Nc1cccc(-n2c(=O)n(C3CC3)c(=O)c3c(Nc4ccc(I)cc4F)n(C)c(=O)c(C)c32)c1 [Trametinib] (partner 0.02 µM)
Outline: (§1)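 Five library-drug doses in √10 steps were combined with a fixed anchor-drug dose, or a single drug was given alone, by pin tool to lung cancer cell lines in 1536-well plates the day after seeding. Nuclei were stained and counted after 5 days. Relative viability is the nuclei count in treated wells over that in vehicle wells, taken as the median of duplicate plates.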

CAP-232 + Luminespib = compound: C[C@H]([C@@H](C(=O)N)NC(=O)[C@@H]1CSSC[C@@H](C(=O)N[C@H](C(=O)N[C@@H](C(=O)N[C@H](C(=O)N1)CCCCN)CC2=CNC3=CC=CC=C32)CC4=CC=C(C=C4)O)NC(=O)[C@@H](CC5=CC=CC=C5)N)O [CAP-232] + CCNC(=O)c1noc(-c2cc(C(C)C)c(O)cc2O)c1-c1ccc(CN2CCOCC2)cc1 [Luminespib] (partner 0.01 µM)
Outline: as §1

CAP-232 + AZD7762 = compound: C[C@H]([C@@H](C(=O)N)NC(=O)[C@@H]1CSSC[C@@H](C(=O)N[C@H](C(=O)N[C@@H](C(=O)N[C@H](C(=O)N1)CCCCN)CC2=CNC3=CC=CC=C32)CC4=CC=C(C=C4)O)NC(=O)[C@@H](CC5=CC=CC=C5)N)O [CAP-232] + NC(=O)Nc1cc(-c2cccc(F)c2)sc1C(=O)N[C@H]1CCCNC1 [AZD7762] (partner 0.2 µM)
Outline: as §1

CAP-232 + Decitabine = compound: C[C@H]([C@@H](C(=O)N)NC(=O)[C@@H]1CSSC[C@@H](C(=O)N[C@H](C(=O)N[C@@H](C(=O)N[C@H](C(=O)N1)CCCCN)CC2=CNC3=CC=CC=C32)CC4=CC=C(C=C4)O)NC(=O)[C@@H](CC5=CC=CC=C5)N)O [CAP-232] + Nc1ncn([C@H]2C[C@H](O)[C@@H](CO)O2)c(=O)n1 [Decitabine] (partner 2 µM)
Outline: as §1

CAP-232 + Navitoclax = compound: C[C@H]([C@@H](C(=O)N)NC(=O)[C@@H]1CSSC[C@@H](C(=O)N[C@H](C(=O)N[C@@H](C(=O)N[C@H](C(=O)N1)CCCCN)CC2=CNC3=CC=CC=C32)CC4=CC=C(C=C4)O)NC(=O)[C@@H](CC5=CC=CC=C5)N)O [CAP-232] + CC1(C)CCC(c2ccc(Cl)cc2)=C(CN2CCN(c3ccc(C(=O)NS(=O)(=O)c4ccc(N[C@H](CCN5CCOCC5)CSc5ccccc5)c(S(=O)(=O)C(F)(F)F)c4)cc3)CC2)C1 [Navitoclax] (partner 0.5 µM)
Outline: as §1

Row | Cell Line | relative viability (CAP-232 + Trametinib; first compound 0.4 µM) | relative viability (CAP-232 + Trametinib; first compound 1.265 µM) | relative viability (CAP-232 + Trametinib; first compound 4 µM) | relative viability (CAP-232 + Trametinib; first compound 12.65 µM) | relative viability (CAP-232 + Luminespib; first compound 0.4 µM) | relative viability (CAP-232 + Luminespib; first compound 1.265 µM) | relative viability (CAP-232 + Luminespib; first compound 4 µM) | relative viability (CAP-232 + Luminespib; first compound 12.65 µM) | relative viability (CAP-232 + AZD7762; first compound 0.4 µM) | relative viability (CAP-232 + AZD7762; first compound 1.265 µM) | relative viability (CAP-232 + AZD7762; first compound 4 µM) | relative viability (CAP-232 + AZD7762; first compound 12.65 µM) | relative viability (CAP-232 + Decitabine; first compound 0.4 µM) | relative viability (CAP-232 + Decitabine; first compound 1.265 µM) | relative viability (CAP-232 + Decitabine; first compound 4 µM) | relative viability (CAP-232 + Decitabine; first compound 12.65 µM) | relative viability (CAP-232 + Navitoclax; first compound 0.4 µM) | relative viability (CAP-232 + Navitoclax; first compound 1.265 µM) | relative viability (CAP-232 + Navitoclax; first compound 4 µM) | relative viability (CAP-232 + Navitoclax; first compound 12.65 µM)
1 | LCLC-103H | 0.662 | 0.666 | 0.723 | 0.703 | 1.04 | 0.989 | 0.902 | 1.07 | 0.89 | 0.792 | 0.891 | 0.747 | 0.777 | 0.687 | 0.735 | 0.704 | – | – | – | –
2 | NCI-H358 | 0.111 | 0.138 | 0.13 | 0.098 | 0.241 | 0.289 | 0.376 | 0.352 | 0.466 | 0.406 | 0.376 | 0.318 | 0.184 | 0.198 | 0.229 | 0.18 | – | – | – | –
3 | NCI-H520 | 0.559 | 0.637 | 0.799 | 0.521 | 0.22 | 0.206 | 0.184 | 0.208 | – | – | – | – | 0.496 | 0.509 | 0.518 | 0.416 | 1.03 | 0.997 | 1.13 | 0.582
4 | NCI-H522 | 0.772 | 0.856 | 0.607 | 0.726 | 1.08 | 1.11 | 1.15 | 1.3 | 0.876 | 1.08 | 0.926 | 1.04 | 0.677 | 0.623 | 0.572 | 0.658 | – | – | – | –
5 | NCI-H650 | 0.821 | 1.04 | 0.896 | 1.01 | 0.735 | 0.824 | 0.674 | 0.721 | 1.29 | 1.03 | 1.02 | 0.951 | 0.342 | 0.278 | 0.278 | 0.156 | – | – | – | –
6 | NCI-H661 | 0.523 | 0.536 | 0.578 | 0.377 | 0.954 | 0.907 | 0.883 | 0.719 | – | – | – | – | 0.546 | 0.543 | 0.583 | 0.446 | – | – | – | –
7 | NCI-H1563 | – | – | – | – | 0.461 | 0.52 | 0.455 | 0.462 | – | – | – | – | – | – | – | – | – | – | – | –
8 | NCI-H1650 | 0.631 | 0.557 | 0.54 | 0.215 | 0.195 | 0.197 | 0.214 | 0.126 | – | – | – | – | 0.404 | 0.423 | 0.554 | 0.192 | 1.34 | 1.08 | 1.36 | 0.478
9 | NCI-H1703 | – | – | – | – | – | – | – | – | 0.124 | – | 0.143 | 0.146 | – | – | – | – | 1.09 | 0.901 | 0.964 | 0.793
10 | NCI-H2009 | 0.237 | 0.251 | 0.247 | 0.301 | 1.02 | 0.975 | 1 | 0.95 | – | – | – | – | 0.397 | 0.391 | 0.341 | 0.33 | 1.15 | 1.14 | 1.13 | 1.04
11 | NCI-H2023 | 0.656 | 0.555 | 0.48 | 0.205 | 0.917 | 0.725 | 0.69 | 0.232 | – | – | – | – | 0.242 | 0.2 | 0.239 | 0.153 | 1.15 | 1 | 1.06 | 0.579
12 | NCI-H2228 | 0.473 | 0.523 | 0.715 | 0.414 | 0.142 | 0.128 | 0.189 | 0.177 | – | – | – | – | – | – | – | – | 0.84 | 0.96 | 0.473 | 1.01
13 | NCI-H2342 | 0.788 | 0.746 | 0.766 | 0.787 | 0.786 | 0.765 | 0.719 | 0.699 | 0.478 | 0.539 | 0.586 | 0.574 | 0.714 | 0.81 | 0.736 | 0.666 | – | – | – | –
14 | SK-LU-1 | 0.45 | 0.477 | 0.717 | 0.492 | 0.198 | 0.211 | 0.183 | 0.207 | – | – | – | – | 0.628 | 0.622 | 0.768 | 0.469 | 0.911 | 0.998 | 1.12 | 0.863
15 | SK-MES-1 | 0.543 | 0.549 | 0.541 | 0.524 | 0.726 | 0.889 | 0.888 | 0.531 | – | – | – | – | 0.452 | 0.344 | 0.384 | 0.274 | 1.28 | 1.17 | 1.45 | 1.1
16 | SW 900 | 0.75 | 0.93 | 0.677 | 0.767 | 0.171 | 0.185 | 0.187 | 0.169 | 0.666 | 0.604 | 0.515 | 0.547 | 0.442 | 0.369 | 0.355 | 0.454 | – | – | – | –
17 | SW 1573 | 0.503 | 0.54 | 0.643 | 0.191 | 0.166 | 0.323 | 0.214 | 0.161 | – | – | – | – | 0.48 | 0.534 | 0.45 | 0.169 | 0.912 | 1.1 | 0.988 | 0.635
18 | UMC-11 | 0.65 | 0.546 | 0.719 | 0.456 | 0.964 | 1.07 | 1.07 | 0.994 | – | – | – | – | 0.55 | 0.55 | 0.581 | 0.671 | 0.317 | 0.307 | 0.295 | 0.297
